From patent US11926604B2, “Myelination stimulator compounds, and methods of treatment” (priority 2018, dated 2024)

Legend:
[1] = test system: mouse brain slices; assay: Myelination in brain slices (MBP, O1 immunostaining); assay type: cell-based; settings: brain slices incubated 5 days in culture, MBP labeling
Experimental: FIG. 2. depicts the effect of compounds on myelination stimulation. FIG. 2. A. Myelin basic protein labeling (green) of brain slices incubated with compounds for 5 days in culture. *, p<0.05 vs vehicle. ANOVA. Data shown are representative at least 3 slices per treatment group per study, in at least 3 separate studies. (B) Vehicle, (C) K-261-0298. Note increased labeling.
Before undertaking in vivo testing, we assessed the ability of the lead compounds to promote OL development and myelination using mouse brain slices, as reported^62,63. Each compound and concentration was tested in triplicate, in at least three separate studies. Slices were collected at 1, 5, 9, or 13 days in vitro, fixed in 4% paraformaldehyde, and used for immunohistochemical staining.

[2] = test system: mice; assay: Single-dose dose-range and toxicity study in mice; assay type: in vivo
Experimental: (§1) Dose-range and toxicity studies in mice. In consultation with UF veterinary staff and the IACUC committee, toxicity studies were performed. […] Compounds were dissolved in 100% DMSO and diluted with 0.9% NaCl before injecting. The IP route (100-500 ul) was used to treat 8-10 week old female adults. We used females because in some studies they are more sensitive to toxins. Experiments were performed with the 2 compounds that had the largest effect on myelination in the brain slice cultures, including K261-0298 and K261-0310. Mice were treated with a single dose.

[3] = test system: mice; assay: Multiday toxicity study, 10 days; assay type: in vivo, mouse; settings: 100 mg/kg for 10 days
[4] = test system: mouse pups; assay: Ten-day treatment of mouse pups from P2, safety and pulmonary hypertension; assay type: in vivo
Experimental: In addition, we also treated mouse pups starting on day P2 for ten days with 100 mg/kg/day K261-0298 or vehicle. […] We also evaluated for possible pulmonary hypertension.

[5] = Toxicokinetic sample collection, HPLC compound levels; assay type: in vivo, mouse; settings: single i.p. injection of 100 mg/kg, mice
Experimental: Toxicokinetic Sample Collection: After the above studies, compound kinetics were examined. Male and female mice at approximately 60 days of age were used (n=8 mice per sex). […] Samples were collected prior to dose and at 30 minutes, 2, 4, 8 and 24 hours after. Compound levels were determined by High Pressure Liquid Chromatography (HPLC) at UF.

[6] = test system: C57BL/6 mice; assay: Myelination in newborn mice in normoxia; assay type: in vivo, mouse
Source text: FIG. 3. depicts results of studies of myelination in newborn mice in normoxia. FIG. 3. Myelin basic protein (MBP), O4 and O1 labeling of coronal forebrain at level of corpus callosum (cc) of newborn mice treated with vehicle or drug (K261-298) from P2 to P12 in room air. Data shown are representative of at least 5 pups per treatment group. cc, corpus callosum. Scale bar=100 um.
After adult studies, pups were studied at developmental stages equivalent to preterm infants to assess effects on myelination, as reported by us^54. C57BL/6 mice were reared in room air from P2 to P12, and treated daily with the compound or vehicle. […] K261-0298 (100 mg/kg) was given by injection, as above.

[7] = test system: hypoxia-exposed mouse; assay: Chronic sublethal hypoxia model of PWMI, ventriculomegaly; assay type: in vivo; design: ventricle size: unit not given here
Source text: FIG. 4. Depicts results of studies of myelination in an animal model of white matter injury. […] Dark-field, hemi-coronal sections at the same brain levels shown. Data shown are representative of 4 pups per treatment group. Arrow depict lateral ventricles. ac, anterior commisure. Note smaller ventricle size in the drug-treated pup. Scale bar=500 um.
We have initiated preclinical testing using the chronic sublethal hypoxia model of PWMI. Mice were reared under hypoxic or normoxic conditions from P2 to P12, as reported 64. At P2, litters were placed in a Plexiglas chamber in which ambient O2 levels are maintained at 10.0±0.3% O2. Normoxic animals were exposed to room air. To date we tested K261-0298 at 100 mg/kg, and mice were treated once per day from P2 to P12. At the end of the treatment period mice were examined for ventriculomegaly, as reported^64,65. […] Compared with normoxic controls^64,66, ventricle sizes in the drug-treated hypoxia animals were similar.

[8] = assay type: physicochemical
Experimental: as §1

[9] = test system: C57BL/6 mice; settings: cited from earlier work
[10] = diazoxide, basis for dose choice; cited from earlier work
[11] = test system: model of PWMI; settings: neonatal therapy; cited from earlier work
[12] = pups from P2, ten days, 100 mg/kg/day
[13] = 100 mg/kg daily P2 to P12, room air, n=6

Compound: CCOCCCNC(=O)CCC1=Nc2ccccc2S(=O)(=O)N1 [Compound K261-0298, 3-(1,1-dioxido-2H-benzo[e][1,2,4]thiadiazin-3-yl)-N-(3-ethoxypropyl)propanamide]
- myelination in vitro [1]: stimulates myelination in vitro
- tolerated single dose ([2]; IP, 8-10 week old female mice): up to 400 mg/kg
- adverse effects on animal behavior or weight [3]: no adverse effects on animal behavior or weight loss
- histopathological analysis of major organs [3]: did not reveal evidence of damage in any major organs
- gross necropsy ([3]; 5 treated mice): no gross malformations were observed
- behavior or weight gain versus vehicle [4, 12]: without any differences in behavior or weight gain
- survival [4, 12]: all survived to the end of treatment
- pulmonary hypertension ([4]; ten days of treatment in pups, juveniles, adults): does not appear that this compound induces pulmonary hypertension
- half-life ([5]; both sexes, mouse, in vivo, ip, read-out: circulating half-life (converted)): 2.2 h
- peak drug levels [5]: 21.5 ± 2.3 µM
- decrease in O4 labeling vs. vehicle [6, 13]: 44+/−4%
- increase in MBP labeling vs. vehicle [6, 13]: 27+/−4%
- increase in O1 labeling vs. vehicle [6, 13]: 26+/−5%
- O1 labeling (FIG. 3) ([6]; P2 to P12 in room air, p<0.02): increase in O1 labeling
- O4 expression (FIG. 3) ([6]; P2 to P12 in room air, p<0.02): reduction in O4 expression
- bioavailability to the brain / blood-brain-barrier penetration ([6]; inferred from changes in CNS myelination): suggests that there is bioavailability of the compound to the brain
- ventricle sizes compared with normoxic controls ([7]; drug-treated hypoxia animals): similar
- ventricle size ([7]; hypoxia, 100 mg/kg once per day P2 to P12, n=4): 0.0054+/−0.00013
- ventriculomegaly vs. vehicle ([7]; hypoxia, 100 mg/kg once per day P2 to P12, p<0.03, 100 mg/kg): marked reduction in ventriculomegaly
- solubility behaviour in dosing solution [8]: more favorable solubility properties

Compound: CC(=O)c1ccc(N2CCN(C(=O)CCC3=Nc4ccccc4S(=O)(=O)N3)CC2)cc1 [Compound K261-0310, 1-(4-(4-acetylphenyl)piperazin-1-yl)-3-(1,1-dioxido-2H-benzo[e][1,2,4]thiadiazin-3-yl)propan-1-one]
- adverse effects at behavioral or gross necropsy levels ([2]; mouse, in vivo, ip, 50 mg/kg): no adverse effects observed
- solubility behaviour in dosing solution [8]: precipitated out of solution at higher concentrations

Compound: CC1=NS(=O)(=O)c2cc(Cl)ccc2N1 [diazoxide]
- myelination in room air (earlier diazoxide studies) [9]: increased myelination
- LD50 [10]: 265 to 392 mg/kg
- myelination [11]: markedly improves myelination
- neurocognitive function [11]: improves neurocognitive function
- ventriculomegaly [11]: reduces ventriculomegaly
